# Marks after values point to notes of the source that are not given here.
# How the values were obtained:
# [1] = Example 2: safety (adverse events, blood pressure, clinical laboratory values); type: in vivo, human; conditions: for Diastolic BP Change from Baseline Post-treatment / Diastolic BP Change from Baseline Treatment / Systolic BP Change from Baseline Post-treatment / Systolic BP Change from Baseline Treatment: mean ± SD
# Method: Each patient received 1 of 6 doses of DTI-0009 (0.25, 1.0, 2.5, 4.0, 10.0, or 25.0 μg/kg) diluted in normal saline or normal saline only (control). Study drug was administered as a 30-minute i.v. infusion at a rate of 1 mL/minute. Patients were enrolled in sequential dose groups, beginning with the lowest active dose group and continuing in increasing dose order; the final group received normal saline. The decision to proceed to the next highest dose group was based on the safety response in the previous dose group.
# Electrophysiologic (EP), electrocardiogram (ECG), blood pressure measurements, and blood collection for clinical laboratory measurements were performed at baseline (−10 to 0 minutes), during treatment (between 20 and 30 minutes), and at 10 minutes post-treatment.
# ECG measurements included PR interval, QRS complex duration, and QT interval. Efficacy was based on changes in EP and ECG parameters from baseline to the treatment period and to post treatment. Safety was based on the incidence of adverse events, blood pressure measurements, and clinical laboratory values.
# The incidence of adverse events, blood pressure measurements, and clinical laboratory results were summarized by dose group. Adverse events were coded using the medical dictionary for regulatory activities (MedDRA version 3.0). Safety analyses included all patients who received any duration of study drug infusion.
# [2] = test system: adult patients with rapid atrial fibrillation (AF); assay: Example 1: ventricular rate control in atrial fibrillation, 15-minute i.v. loading dose plus maintenance dose; type: in vivo, human
# Method: A randomized, parallel-group, open label, dose-ranging study of DTI-0009 as a 15-minute intravenous loading dose (LD) followed by a maintenance dose (MD) infusion for up to 20 hours in adult patients with rapid atrial fibrillation (AF) (>120 bpm) was conducted. 78 patients were randomized to receive one of three LD regimens. If the ventricular rate (VR) was between 70 and 90 bpm 5 minutes after the end of the LD, then patients were randomized to one of the following three MDs of DTI-0009: 1.75 μg/kg/hr, 2.25 μg/kg/hr, or 2.75 μg/kg/hr. The MD was adjusted to keep the VR within the 70-90 bpm range.
# 63 of 69 patients completed the LD, 20 patients received a MD, and 18 patients completed at least 3 hours of MD. The VR remained below 100 bpm across all the dosing regimens during the 3-hour MD.
smiles,measurement,setting,value
"CCNC(=O)[C@H]1O[C@@H](n2cnc3c(NC4CCCC4)ncnc32)[C@H](O)[C@@H]1O [DTI-0009, N^6-cyclopentyl-5′-(N-ethyl)carboxamidoadenosine]",Incidence of Adverse Events: Cardiac Disorders,[1]; 4.0 μg/kg (n = 10),2 (20%)
same,Incidence of Adverse Events: Chest pain/tightness,[1]; 4.0 μg/kg (n = 10),0
same,Incidence of Adverse Events: Conduction disorders,[1]; 4.0 μg/kg (n = 10),0
same,Incidence of Adverse Events: General Disorders,[1]; 4.0 μg/kg (n = 10),0
same,Incidence of Adverse Events: Groin pain/swelling,[1]; 4.0 μg/kg (n = 10),0
same,Diastolic BP Change from Baseline Post-treatment,[1]; 4.0 μg/kg,0.6 ± 10.5 mmHg
same,Diastolic BP Change from Baseline Treatment,[1]; 4.0 μg/kg,3.3 ± 8.4 mmHg
same,Systolic BP Change from Baseline Post-treatment,[1]; 4.0 μg/kg,5.2 ± 10.2 mmHg
same,Systolic BP Change from Baseline Treatment,[1]; 4.0 μg/kg,3.8 ± 8.4 mmHg
same,Adverse Events Related to Study Drug: Cardiac Disorders (all),[1]; 10.0 μg/kg (n = 12),6 (50%)
same,Adverse Events Related to Study Drug: General Disorders (all),[1]; 10.0 μg/kg (n = 12),1 (8%)
same,Incidence of Adverse Events Related to Study Drug,[1]; 10.0 μg/kg (n = 12),7 (58%)
same,Incidence of Adverse Events: Any Adverse Event,[1]; 10.0 μg/kg (n = 12),8 (67%)
same,Incidence of Adverse Events: Atrial fibrillation,[1]; 10.0 μg/kg (n = 12),3 (25%)
same,Incidence of Adverse Events: Atrial flutter,[1]; 10.0 μg/kg (n = 12),1 (8%)
same,Incidence of Adverse Events: Atrial tachycardia,[1]; 10.0 μg/kg (n = 12),0
same,Incidence of Adverse Events: Bradycardia,[1]; 10.0 μg/kg (n = 12),1 (8%)
same,Incidence of Adverse Events: Cardiac Disorders,[1]; 10.0 μg/kg (n = 12),6 (50%)
same,Incidence of Adverse Events: Chest pain/tightness,[1]; 10.0 μg/kg (n = 12),1 (8%)
same,Incidence of Adverse Events: Conduction disorders,[1]; 10.0 μg/kg (n = 12),1 (8%)
same,Incidence of Adverse Events: General Disorders,[1]; 10.0 μg/kg (n = 12),2 (17%)
same,Incidence of Adverse Events: Groin pain/swelling,[1]; 10.0 μg/kg (n = 12),0
same,patients with severe adverse events,[1]; 10.0 μg/kg group,1 patient
same,Diastolic BP Change from Baseline Post-treatment,[1]; 10.0 μg/kg,−7.2 ± 16.8 mmHg
same,Diastolic BP Change from Baseline Treatment,[1]; 10.0 μg/kg,−3.2 ± 11.2 mmHg
same,Systolic BP Change from Baseline Post-treatment,[1]; 10.0 μg/kg,−12.6 ± 20.4 mmHg
same,Systolic BP Change from Baseline Treatment,[1]; 10.0 μg/kg,−3.2 ± 13.5 mmHg
same,Adverse Events Related to Study Drug: Cardiac Disorders (all),[1]; 25.0 μg/kg (n = 3),2 (66.7%)
same,Adverse Events Related to Study Drug: General Disorders (all),[1]; 25.0 μg/kg (n = 3),3 (100%)
same,Incidence of Adverse Events Related to Study Drug,[1]; 25.0 μg/kg (n = 3),3 (100%)
same,Incidence of Adverse Events: Any Adverse Event,[1]; 25.0 μg/kg (n = 3),3 (100%)
same,Incidence of Adverse Events: Atrial fibrillation,[1]; 25.0 μg/kg (n = 3),1 (33%)
same,Incidence of Adverse Events: Atrial flutter,[1]; 25.0 μg/kg (n = 3),0
same,Incidence of Adverse Events: Atrial tachycardia,[1]; 25.0 μg/kg (n = 3),1 (33%)
same,Incidence of Adverse Events: Bradycardia,[1]; 25.0 μg/kg (n = 3),1 (33%)
same,Incidence of Adverse Events: Cardiac Disorders,[1]; 25.0 μg/kg (n = 3),2 (66.7%)
same,Incidence of Adverse Events: Chest pain/tightness,[1]; 25.0 μg/kg (n = 3),3 (100%)
same,Incidence of Adverse Events: Conduction disorders,[1]; 25.0 μg/kg (n = 3),0
same,Incidence of Adverse Events: General Disorders,[1]; 25.0 μg/kg (n = 3),3 (100%)
same,Incidence of Adverse Events: Groin pain/swelling,[1]; 25.0 μg/kg (n = 3),0
same,patients with severe adverse events,[1]; 25.0 μg/kg group,2 patients
same,patients who did not complete study drug infusion due to adverse events,"[1]; 25.0 μg/kg group, chest pain, severe chest pain, chest tightness and atrial fibrillation",Three patients
same,Diastolic BP Change from Baseline Post-treatment,[1]; 25.0 μg/kg,1.0 ± 8.0 mmHg
same,Diastolic BP Change from Baseline Treatment,[1]; 25.0 μg/kg,7.5 ± 2.1 mmHg
same,Systolic BP Change from Baseline Post-treatment,[1]; 25.0 μg/kg,6.7 ± 8.1 mmHg
same,Systolic BP Change from Baseline Treatment,[1]; 25.0 μg/kg,23.0 ± 2.8 mmHg
same,changes in blood pressure or clinical laboratory values,[1]; any patient during the study,no clinically significant changes
same,ventricular rate (VR),"[2]; LD 2.5 μg/kg, 5 min, Baseline 143",129^a bpm
same,ventricular rate (VR),"[2]; LD 2.5 μg/kg, 10 min, Baseline 143",117^a bpm
same,ventricular rate (VR),"[2]; LD 2.5 μg/kg, 15 min, Baseline 143",113^b bpm
same,ventricular rate (VR),"[2]; LD 2.5 μg/kg, 20 min, Baseline 143",115^b bpm
same,ventricular rate (VR),"[2]; LD 5.0 μg/kg, 5 min, Baseline 138",115^b bpm
same,ventricular rate (VR),"[2]; LD 5.0 μg/kg, 10 min, Baseline 138",104^b bpm
same,ventricular rate (VR),"[2]; LD 5.0 μg/kg, 15 min, Baseline 138",108^b bpm
same,ventricular rate (VR),"[2]; LD 5.0 μg/kg, 20 min, Baseline 138",111^b bpm
same,ventricular rate (VR),"[2]; LD 7.5 μg/kg, 5 min, Baseline 143","110^b,c bpm"
same,ventricular rate (VR),"[2]; LD 7.5 μg/kg, 10 min, Baseline 143","99^b,c bpm"
same,ventricular rate (VR),"[2]; LD 7.5 μg/kg, 15 min, Baseline 143",105^b bpm
same,ventricular rate (VR),"[2]; LD 7.5 μg/kg, 20 min, Baseline 143",106^b bpm
same,VR during maintenance dose,"[2]; all dosing regimens, 3-hour MD",below 100 bpm
same,systolic and diastolic blood pressures,[2]; during the LD,did not change significantly
